{"source": "patent US20070072815A1", "about": "“Methods and kits to increase the efficiency of oligonucleotide-directed nucleic acid sequence alteration” (priority 2004, published 2007)", "key": {"DNA of DLD-1-1 cells": {"test_system": "DNA of DLD-1-1 cells", "experiment": "Pulsed-field gel electrophoresis of DNA damage (double strand breaks)", "assay_type": "cell-based", "conditions": "0.75 μM bleomycin or 0.2 μM MMS, 24 hours", "procedure": "The cells are released by trypsinization and melted in the agarose inserts. The agarose inserts are incubated in 0.5M EDTA—1% N-laurosylsarcosine—proteinase K (1 mg/ml) at 50° C. for 48 hrs and then washed four times in TE buffer prior to loading on a 1% agarose gel (Pulse-Field Certified Agarose, Bio-Rad, Hercules, Calif.) and DNA separation by pulsed-field gel electrophoresis is carried out for 24 hrs (Bio-Rad, 120° field angle, 60 to 240s switch time, 4 V/cm). The gel is subsequently stained with ethidium bromide and analyzed with AlphaImager™ 2200. (Alpha Innotech Corp., San Leandro, Calif.).\nThe effects of MMS and bleomycin on oligonucleotide-directed gene alteration are determined as follows. DLD-1-1 cells are seeded in 100 mm dishes at 2×10^6 cells per plate and immediately treated with 0.2 μM MMS or 0.75 μM bleomycin. The cells are then grown for 24 hours, until approximately 50% confluent, and washed twice with PBS. A portion of each population of cells is removed for DNA analysis by pulsed-field electrophoresis, as described in Example 1. The correcting oligo EGFP/72NT (10 μg) is then added and the cells are electroporated as in Example 3. Cells are then analyzed to determine the percentage of cells with corrected eGFP genes as described in Example 3."}, "[1]": {"test_system": "mutant eGFP gene in DLD-1-1 cells", "experiment": "eGFP gene correction (oligonucleotide-directed sequence alteration) in DLD-1-1 cells, FACS readout", "assay_type": "cell-based", "conditions": "0.2 μM MMS 24 hours before electroporation, 10 μg oligo"}, "DLD-1-1 cells [2]": {"test_system": "DLD-1-1 cells", "experiment": "Cell viability / cell death by propidium iodide FACS", "method": "Flow cytometry analysis: eGFP fluorescence of corrected cells is measured by a Becton Dickinson FACSCalibur™ flow cytometer (Becton Dickinson, Rutherford, N.J.). Cells are harvested 48 hrs after electroporation and resuspended in FACS buffer (0.5% BSA, 2 mM EDTA, 2 μg/ml propidium iodide in PBS). More specifically, the program is set for the appropriate cell size (forward scatter versus side scatter) and the population of single-cells is gated for analysis. Using the negative control (minus PI, minus GFP) the background fluorescence was set by positioning the cells in the 10^1 decade of the dot plot by adjusting the voltage for FL1 (GFP) and FL2 (PI). The composition is then set for multi-fluorochrome experiments using a GFP control sample containing no PI and increasing the compensation to bring the signal toward the FL1 parameter. Finally, the last control, PI and no GFP is used to increase the compensation to bring the signal toward the FL2 parameter. Samples of 50,000 cells each are analyzed and those cells being GFP positive and PI negative are scored as corrected cells.\nFor cells that were not previously treated with caffeine, caffeine is added to the media to a final concentration of 4 mM in the 60 mM dish immediately following electroporation (the “recovery phase”). For cells that were pre-treated with caffeine, there is no addition of caffeine during the recovery phase. After 24 hrs of recovery, the media is changed and caffeine (4 mM final concentration) is added back to the culture. After 48 hrs of recovery, the samples are read by FACS: eGFP fluorescence reflects gene alteration (correction), and propidium iodide (PI) staining reflects cellular viability."}, "[3]": {"test_system": "mutant eGFP gene in DLD-1-1 cells", "experiment": "eGFP gene correction (oligonucleotide-directed sequence alteration) in DLD-1-1 cells, FACS readout", "assay_type": "cell-based", "conditions": "for correction efficiency: cells synchronized by double thymidine block, then 10 mM thymidine 24 hours", "procedure": "Cell line and culture conditions: DLD-1 cells are obtained from ATCC (American Type Cell Culture, Manassas, Va.). DLD-1 integrated clone 1 (DLD-1-1) is obtained by integration of the vector pEGFP-N3 containing a single point mutation (TAG) in the eGFP gene, as described in copending U.S. patent application Ser. No. 10/986,418, filed Nov. 10, 2004 (“Mammalian Cell Lines for Detecting, Monitoring, and Optimizing Oligonucleotide-Mediated Chromosomal Sequence Alteration”). Cells are grown in RPMI 1640 medium with 2 mM glutamine, 4.5 g/L glucose, 10 mM HEPES, 1 mM sodium pyruvate and supplemented with 10% FBS. Cells are maintained at 5% CO2, 37° C. and under selection in 200 μg/ml G418 (Gibco, Invitrogen Co., Carlsbad, Calif.).\neGFP gene correction: Cells grown in complete medium supplemented with 10% FBS are trypsinized and harvested by centrifugation. The cell pellet is resuspended in serum-free medium at a density of 1×10^6 cells/100 μl and transferred to a 4 mm gap cuvette (Fisher Scientific, Pittsburgh, Pa.). The oligonucleotide is then added at a concentration of 4 μM and the cells are electroporated (LV, 250V, 13 msec, 2 pulses, 1 second interval) using a BTX ECM830 apparatus (BTX, Holliston, Mass.). The cells are then transferred to a 60 mm dish containing fresh medium supplemented with 10% FBS and incubated for 48 hrs at 37° C. before harvesting for FACS analysis.\nThe percentage of converted cells in a whole population is then calculated by CellQuest™ (Becton Dickinson) and GFP/PI programs. The correction efficiency is determined by dividing the number of eGFP positive cells by the number of cells analyzed in each experiment (usually 50,000 cells). Each clone is tested three times to determine the standard deviation of the correction efficiency, with standard deviation calculated using Microsoft Excel.\nThe experimental strategy involves the introduction of oligonucleotides into DLD-1-clone 1 cells by electroporation followed by phenotypic readout of the corrected eGFP gene, 48 hours later. The correcting oligonucleotide (EGFP3S/72NT) is 72 bases in length (72-mer), complementary to the non-transcribed strand of the mutant eGFP gene but designed to create a single mismatch in the third base of codon 67 (see FIG. 1A). It directs conversion of a TAG→TAC codon which enables phenotypic expression of eGFP, which can be detected by FACS. FIG. 1B outlines the sequence of the target gene, the 72-mer and a nonspecific 74-mer used as a control.\nOligonucleotide-Directed Sequence Alteration: The resulting synchronized populations of cells, and asynchronous controls, are grown in complete medium supplemented with 10% FBS and trypsinzed and harvested by centrifugation at 1500 rpm for 5 minutes. The cell pellet is resuspended in fresh serum-free medium at a density of 2×10^6 cells/100 μl. The entire cell suspension is mixed with 20 μg of EGFP/72NT and transferred into a 4 mm gap cuvette (Fisher Scientific, Pittsburgh, Pa., USA) followed by electroporation with two 250V pulses, each 13 ms in duration, with one second between pulses, unipolar.\nCells are incubated at room temperature for 30 min. […] Frequency of converted cells are calculated by CellQuest™ and GFP/PI programs.\nDouble Thymidine Block: Cells are synchronized in G1 or at the G1/S border by a double thymidine block. Twenty-four hours prior to the addition of any agent (HU, etc.), cells are plated at a density of 0.5×10^6 cells per 100 mm dish, followed by incubation in 2 mM thymidine (Sigma) for 16 hrs, washed and released in fresh medium for 10 hrs, then incubated in 2 mM thymidine for an additional 15 hrs.\nFACS is then used to analyze 50,000 cells from each population to determine the percentage of cells expressing functional eGFP, as described in Example 1."}, "DLD-1-1 cells [4]": {"test_system": "DLD-1-1 cells", "experiment": "Cell cycle analysis (DNA content by FACS), cells in S phase", "assay_type": "cell-based", "procedure": "(§1) For cell cycle analysis, 1×10^6 cells are plated 24 hrs before the treatment with drugs and after 24 hrs of treatment, cells are trypsinized, resuspended in 300 μl cold PBS and fixed by adding 700 μl cold ethanol. Cells are then resuspended in 1 ml of PBS containing 500 µg/ml RNaseA and […] propidium iodide and analyzed for DNA content.\nThe effect of cell cycle on the efficiency of ODSA is assessed by synchronizing a population of DLD-1-1 cells with mimosine, which arrests cells in early S phase, and serum starvation. Cells are seeded at a density of 0.8×10^6 per 100 mm dish, attached for 20 hours and then cultured in RMPI-1640 medium containing 0.2% fetal bovine serum (FBS). These cells are grown for 48 hours followed by treatment with 0.1 mM mimosine (Sigma, St. Louis, Mo., USA) for 20 hours. Cell are washed twice with PBS and released at various times into fresh medium complemented with 10% FBS before electroporation. Cells are rinsed once with PBS, trypsinized and harvested by centrifugation and resuspended in PBS containing 10 μg/ml propidium iodide, 0.03% Triton-100 and 1 mg/ml RNase. Cells are incubated at room temperature for 1 hour before the measurement of DNA content by FACSCalibur™ flow cytometer. The percentage of cells at various stages of the cell cycle is determined by ModFit L™ software (Verity Software House, Inc., Topsham, Me., USA).\n(§2) The resulting cells are then either analyzed by FACS, or the percentage of cells in S phase is determined by BrdU incorporation. FIG. 8 presents the results of both sets of experiments."}, "DLD-1-1 cells [5]": {"test_system": "DLD-1-1 cells", "experiment": "BrdU incorporation (actively replicating forks)", "assay_type": "cell-based", "conditions": "24 hour treatment; 500 μM ddC, ddI or AraC (FIG. 17B)", "procedure": "as §1, §2\nAs stated above, the lack of stimulation observed in cells treated with AraC could be explained by the reduced number of cells passing through S phase or the absence of actively replicating forks. If true, we might predict that a rise in the gene repair frequency would appear if the cells are released from the AraC block and replication forks are allowed to restart prior to the electroporation of the oligonucleotide. We test this prediction by treating the cells with AraC for 24 hrs and then releasing them by washing out the drug at specific times. We measure the level of BrdU incorporation at the time of electroporation and evaluate the frequency of correction 48 hrs later."}, "[6]": {"test_system": "α-galactosidase A (GLA) activity in Fabry's cell line DMN-1", "experiment": "GLA activity in Fabry's cells after ODSA", "assay_type": "cell-based, human", "conditions": "cells synchronized by DTB, 500 μM ddC", "description": "(§3) Cell line DMN-1, a human fibroblast cell line derived from a human patient with Fabry's disease, is obtained from the National Institutes of Health (NIH). These cells are used to measure the efficiency of correction of a mutant allele of α-galactosidase A (GLA) using methods of the present invention. The specific disease-causing mutation in the Fabry's cell line used herein is A143P, caused by a G→C mutation in the gene. See Branton et al., Medicine (Baltimore) (2002) 81(2): 122-38.\n(§4) All four oligonucleotides are used to effect ODSA substantially as described in Example 1, with the exception that cells are transfected with oligonucleotides, rather than electroporated. Oligos are added at 5 μg, 10 μg or 30 μg per reaction. After ODSA is performed, cells are cultured and assayed for GLA activity according to the method of Brady, as described in Medin et al., Proc. Natl. Acad. Sci. (USA) (1996) 93:7917-22, the disclosure of which is incorporated herein by reference in its entirety. The GLA activity is used as a measure of gene correction by comparing the activities in treated versus untreated cultures. The correction efficiency is subsequently confirmed by sequencing of the locus of mutation in a number of treated cells.\n[…] Unlike the experiments involving correction of eGFP in DLD-1-1 cells described in Example 1, however, certain of the agents (VPA, caffeine, TSA) in the experiments in this example are not added before transfection, but are instead added only after transfection, during the recovery period.\n(§5) The means of introducing oligonucleotide into the target cells also differs from previous examples, with transfection in the presence of the transfection enhancing agent FuGENE™ 6 (FG) (Roche Diagnostics Corp., Indianapolis, Ind., USA) being used rather than electroporation. Each transfection reaction includes 100 μl of target cells and 12 μl of FG unless otherwise indicated, despite the fact that FG is not explicitly listed for each datapoint in the relevant figures. Otherwise the procedures used in the DLD-1-1 experiments and the Fabry's experiments are similar.\nThe results of a further series of experiments are shown at FIG. 15D, where the data are presented as GLA activity as nanomolar (nM) concentration of the product of the GLA assay generated per hour per unit protein concentration (as are the data in FIGS. D and E)."}, "[7]": {"test_system": "mutant allele (A143P) of α-galactosidase A (GLA) in Fabry's cell line DMN-1", "experiment": "Correction efficiency of mutant GLA allele in Fabry's cells", "assay_type": "cell-based, human", "conditions": "VP16 1-50 μM; thymidine 2-50 mM; with or without correcting oligonucleotide", "description": "as §3, §4\nAs in the previous examples, target cells are treated with HU, VP16 or CPT prior to transfection with the correcting oligonucleotide. Unlike the experiments involving correction of eGFP in DLD-1-1 cells described in Example 1, however, certain of the agents (VPA, caffeine, TSA) in the experiments in this example are not added before transfection, but are instead added only after transfection, during the recovery period.\nas §5\nThe same experiment as described with respect to FIG. 15A is repeated in the presence of various agents and treatments to evaluate whether embodiments of the present invention can increase gene alteration (in this example, correction) efficiency. […] Bars represent the correction efficiencies observed in the various experiments. Unless otherwise indicated, all experiments include 10 μg of 49T/gg in addition to any other agent used to treat the cells."}}, "note": "“Also recorded” adds a separate entry of the source."}
{"compound": "COS(C)(=O)=O", "note": "[MMS, methyl methanesulfonate]", "values": [{"measurement": "DNA damage", "setting": "DNA of DLD-1-1 cells", "result": "effect DNA damage"}, {"measurement": "effect on correction efficiency", "setting": "[1]", "result": "more than doubles the correction efficiency; also recorded: doubles correction efficiency"}, {"measurement": "effect on cell death", "setting": "DLD-1-1 cells [2]; 0.2 μM MMS", "result": "Cell death is not increased"}]}
{"compound": "Nc1ccn([C@H]2CC[C@@H](CO)O2)c(=O)n1", "note": "[ddC, 2′3′-dideoxycytidine]", "values": [{"measurement": "correction levels", "setting": "[3]; cells treated with ddC alone (FIG. 20)", "result": 2.9, "unit": "%"}, {"measurement": "effect on correction efficiency (increase)", "setting": "[3]; ddC 24 hrs before electroporation, 500-750 μM", "result": "more than two-fold; also recorded: approximately two- to three-fold; also recorded: dose-dependent increase"}, {"measurement": "cells in S phase", "setting": "DLD-1-1 cells [4]; 24 hour treatment, 500 μM ddC, ddI or AraC (FIG. 17A)", "result": 70, "unit": "%"}, {"measurement": "BrdU uptake (cells actively incorporating DNA bases)", "setting": "DLD-1-1 cells [5]", "result": 71.8, "unit": "%"}, {"measurement": "increase of GLA activity compared with untreated cells", "setting": "[6]", "result": "approximately two-fold; also recorded: doubles DLA activity"}, {"measurement": "toxicity", "setting": "DLD-1-1 cells [2]; ddC levels higher than 750 μM (data not shown)", "result": "cellular toxicity"}]}
{"compound": "Cc1cn([C@H]2C[C@H](O)[C@@H](CO)O2)c(=O)[nH]c1=O", "note": "[thymidine]", "values": [{"measurement": "correction efficiency in synchronized cells relative to asynchronous cells", "setting": "[3]; 1 mM HU or 10 mM thymidine, DTB synchronized vs asynchronous", "result": "over seven times"}, {"measurement": "effect of synchronization by double thymidine block on correction efficiency", "setting": "[3]; 2 mM thymidine 16 hrs, release 10 hrs, 2 mM thymidine 15 hrs, no other agent", "result": "increases correction efficiency"}, {"measurement": "effect on correction efficiency in asynchronous cells", "setting": "[3]; 10 mM thymidine 24 hours", "result": "does not enhance correction efficiency"}, {"measurement": "correction efficiency", "setting": "[3]", "result": 7.5, "unit": "%"}, {"measurement": "correction efficiency", "setting": "[3]; listed as Thymidine", "result": "over 7%"}, {"measurement": "proportion of cells in S phase", "setting": "DLD-1-1 cells [4]; after double thymidine block", "result": 1.5, "unit": "%"}, {"measurement": "effect on correction efficiency", "setting": "[7]", "result": "little effect on correction efficiency"}]}
{"compound": "bleomycin", "values": [{"measurement": "DNA damage", "setting": "DNA of DLD-1-1 cells", "result": "effect DNA damage"}]}
